Values joined by “and” are separate entries in the source; they are usually repeats but may differ in a detail not shown here. Identical values can stand only once. Toxic doses and inconclusive results are not listed. The calls were made as follows: active = survival T/C of 150% or more; inactive = T/C below 125% in these data.
Tested on: B6C3F1 mice, ip Sarcoma M5076, median survival T/C
Assay: NCI In Vivo Anticancer Drug Screen. Data for tumor model Sarcoma M5076 (intraperitoneal) in B6C3F1 mice
Conditions: endpoint: median survival time, higher = longer survival
Method: The antitumor activity of compounds was measured in mice bearing transplantable tumors. Survival or tumor size were measured and the results are expressed as the measurement made in the treated group (T) divided by the measurement made in the vehicle treated control group (C). The tumor model used in this assay is Sarcoma M5076 (intraperitoneal) in B6C3F1 mice

[1] = dose: 12.5 mg/kg/injection, schedule: Q04DX004 (ip), vehicle: saline with Tween-80
[2] = dose: 25.0 mg/kg/injection, schedule: Q04DX004 (ip), vehicle: saline with Tween-80
[3] = dose: 50.0 mg/kg/injection, schedule: Q04DX004 (ip), vehicle: saline with Tween-80
[4] = dose: 100.0 mg/kg/injection, schedule: Q04DX004 (ip), vehicle: saline with Tween-80
[5] = dose: 200.0 mg/kg/injection, schedule: Q04DX004 (ip), vehicle: saline with Tween-80
[6] = dose: 50.0 mg/kg/injection, schedule: Q04DX004 (ip), vehicle: Klucel (hydroxypropylcellulose) (HPC)
[7] = dose: 100.0 mg/kg/injection, schedule: Q04DX004 (ip), vehicle: Klucel (hydroxypropylcellulose) (HPC)
[8] = dose: 200.0 mg/kg/injection, schedule: Q04DX004 (ip), vehicle: Klucel (hydroxypropylcellulose) (HPC)
[9] = dose: 12.5 mg/kg/injection, schedule: Q04DX004 (ip), vehicle: Klucel (hydroxypropylcellulose) (HPC)
[10] = dose: 25.0 mg/kg/injection, schedule: Q04DX004 (ip), vehicle: Klucel (hydroxypropylcellulose) (HPC)
[11] = dose: 25.0 mg/kg/injection, schedule: Q04DX004 (ip), vehicle: saline
[12] = dose: 50.0 mg/kg/injection, schedule: Q04DX004 (ip), vehicle: saline
[13] = dose: 100.0 mg/kg/injection, schedule: Q04DX004 (ip), vehicle: saline
[14] = dose: 6.25 mg/kg/injection, schedule: Q04DX004 (ip), vehicle: Klucel (hydroxypropylcellulose) (HPC)

Measured: T/C

COc1ncc(Br)cc1C(=O)NCCc1ccc(S(=O)(=O)NC(=O)NC2CCCCC2)cc1
inactive: [1] 100 % of control | [2] 102 % of control | [3] 100 % of control

O=C1C2CC=CCC2C(=O)N1SC(Cl)(Cl)Cl (stereo unspecified)
inactive: dose: 3.13 mg/kg/injection, schedule: Q04DX004 (ip), vehicle: saline with Tween-80 110 % of control | dose: 6.25 mg/kg/injection, schedule: Q04DX004 (ip), vehicle: saline with Tween-80 120 % of control | [1] 91 % of control | [2] 100 % of control

CCOC(=O)c1cn(C)c2c1C(=O)C(C(=O)OCC)CC(=O)N2 (stereo unspecified)
inactive: dose: 31.25 mg/kg/injection, schedule: Q04DX004 (ip), vehicle: saline + Tween-80 + alcohol 100 % of control | dose: 62.5 mg/kg/injection, schedule: Q04DX004 (ip), vehicle: saline + Tween-80 + alcohol 101 % of control | dose: 125.0 mg/kg/injection, schedule: Q04DX004 (ip), vehicle: saline + Tween-80 + alcohol 94 % of control | dose: 250.0 mg/kg/injection, schedule: Q04DX004 (ip), vehicle: saline + Tween-80 + alcohol 92 % of control

C=C(C)/C([O-])=N/[N+](C)(C)CC(O)CCCCCCCCCCCC (stereo unspecified)
inactive: dose: 12.5 mg/kg/injection, schedule: Q04DX004 (ip), vehicle: suspension in saline 97 % of control | dose: 25.0 mg/kg/injection, schedule: Q04DX004 (ip), vehicle: suspension in saline 95 % of control | dose: 50.0 mg/kg/injection, schedule: Q04DX004 (ip), vehicle: suspension in saline 100 % of control | dose: 100.0 mg/kg/injection, schedule: Q04DX004 (ip), vehicle: suspension in saline 92 % of control

Clc1ccc(-c2noc(CN3CCCCC3)n2)cc1
inactive: [3] 92 % of control | [4] 96 % of control | [5] 97 % of control

O=c1/c(=C\C=C\c2ccccc2)sc2n1CCN=2
inactive: [3] 95 % of control | [4] 99 % of control | [5] 91 % of control | dose: 400.0 mg/kg/injection, schedule: Q04DX004 (ip), vehicle: saline with Tween-80 99 % of control

C/C(=C\c1ccccc1)C1C(C#N)C(=O)NC(=O)C1C#N (stereo unspecified)
inactive: [6] 100 % of control | [7] 113 % of control | [8] 106 % of control | dose: 400.0 mg/kg/injection, schedule: Q04DX004 (ip), vehicle: Klucel (hydroxypropylcellulose) (HPC) 106 % of control

COc1cc(/C=C/[N+](=O)[O-])cc(Br)c1OC
inactive: [1] 95 % of control | [2] 90 % of control | [3] 94 % of control | [4] 107 % of control

O=C1c2c(O)ccc(O)c2C(=O)c2c(NCCNCCO)ccc(NCCNCCO)c21
active: dose: 0.25 mg/kg/injection, schedule: Q04DX005 (ip), vehicle: saline 319 % of control | dose: 0.5 mg/kg/injection, schedule: Q04DX004 (ip), vehicle: water 161 % of control | dose: 0.5 mg/kg/injection, schedule: Q04DX005 (ip), vehicle: saline 319 % of control | dose: 1.0 mg/kg/injection, schedule: Q04DX004 (ip), vehicle: water 174 % of control | dose: 1.0 mg/kg/injection, schedule: Q04DX005 (ip), vehicle: saline 319 % of control | dose: 2.0 mg/kg/injection, schedule: Q04DX004 (ip), vehicle: water 224 % of control | dose: 2.0 mg/kg/injection, schedule: Q04DX005 (ip), vehicle: saline 298 % of control

O=c1nc2[nH]c3c4cccc5cccc(c3nc2c(=O)[nH]1)c54
inactive: [9] 103 % of control | [10] 99 % of control | [6] 98 % of control | [7] 94 % of control | [8] 103 % of control

C=COC(=O)C(Cc1ccccc1)NC(=O)OCc1ccccc1 (stereo unspecified)
inactive: dose: 75.0 mg/kg/injection, schedule: Q04DX004 (ip), vehicle: saline with Tween-80 91 % of control | dose: 150.0 mg/kg/injection, schedule: Q04DX004 (ip), vehicle: saline with Tween-80 111 % of control | dose: 300.0 mg/kg/injection, schedule: Q04DX004 (ip), vehicle: saline with Tween-80 113 % of control | dose: 600.0 mg/kg/injection, schedule: Q04DX004 (ip), vehicle: saline with Tween-80 91 % of control | dose: 1200.0 mg/kg/injection, schedule: Q04DX004 (ip), vehicle: saline with Tween-80 88 % of control

O=C1c2c(O)cccc2-c2nn(CCNCCO)c3ccc(NCCNCCO)c1c23
active: dose: 2.75 mg/kg/injection, schedule: Q04DX004 (ip), vehicle: water 169 % of control | dose: 5.5 mg/kg/injection, schedule: Q04DX004 (ip), vehicle: water 233 % of control and 263 % of control | dose: 11.0 mg/kg/injection, schedule: Q04DX004 (ip), vehicle: water 243 % of control
inactive: dose: 22.0 mg/kg/injection, schedule: Q04DX004 (ip), vehicle: water 109 % of control

NC(Cn1ccc(=O)c(O)c1)C(=O)O (stereo unspecified)
inactive: dose: 75.0 mg/kg/injection, schedule: Q04DX004 (ip), vehicle: saline 100 % of control | dose: 150.0 mg/kg/injection, schedule: Q04DX004 (ip), vehicle: saline 109 % of control | dose: 300.0 mg/kg/injection, schedule: Q04DX004 (ip), vehicle: saline 103 % of control | dose: 600.0 mg/kg/injection, schedule: Q04DX004 (ip), vehicle: saline 118 % of control | dose: 1200.0 mg/kg/injection, schedule: Q04DX004 (ip), vehicle: saline 113 % of control

Cc1ccc(C(=O)Nc2ccc(S(=O)(=O)O)c3cc(S(=O)(=O)O)cc(S(=O)(=O)O)c23)cc1NC(=O)c1cccc(NC(=O)Nc2cccc(C(=O)Nc3cc(C(=O)Nc4ccc(S(=O)(=O)O)c5cc(S(=O)(=O)O)cc(S(=O)(=O)O)c45)ccc3C)c2)c1
inactive: [11] 105 % of control | [12] 108 % of control and 109 % of control | [13] 112 % of control

COC(COC(=O)N1CCN(C=O)CC1)C1=C(N2CC2)C(=O)C(C)=C(N2CC2)C1=O (stereo unspecified)
active: dose: 3.0 mg/kg/injection, schedule: Q04DX004 (ip), vehicle: saline 152 % of control | dose: 3.6 mg/kg/injection, schedule: Q04DX004 (ip), vehicle: saline 150 % of control | dose: 6.0 mg/kg/injection, schedule: Q04DX004 (ip), vehicle: saline 176 % of control and 190 % of control | dose: 10.0 mg/kg/injection, schedule: Q04DX004 (ip), vehicle: saline 245 % of control | dose: 12.0 mg/kg/injection, schedule: Q04DX004 (ip), vehicle: saline 151 % of control
inactive: dose: 1.5 mg/kg/injection, schedule: Q04DX004 (ip), vehicle: saline 124 % of control

C=C(Cl)C(=NC(C)(C)C)Nc1ccccc1C
inactive: dose: 3.0 mg/kg/injection, schedule: Q04DX004 (ip), vehicle: Klucel (hydroxypropylcellulose) (HPC) 98 % of control | dose: 6.0 mg/kg/injection, schedule: Q04DX004 (ip), vehicle: Klucel (hydroxypropylcellulose) (HPC) 116 % of control | [14] 108 % of control | dose: 12.0 mg/kg/injection, schedule: Q04DX004 (ip), vehicle: Klucel (hydroxypropylcellulose) (HPC) 103 % of control | dose: 24.0 mg/kg/injection, schedule: Q04DX004 (ip), vehicle: Klucel (hydroxypropylcellulose) (HPC) 98 % of control | [10] 117 % of control | dose: 48.0 mg/kg/injection, schedule: Q04DX004 (ip), vehicle: Klucel (hydroxypropylcellulose) (HPC) 104 % of control

O=C([O][Bi]([c]1ccccc1)[c]1ccccc1)c1ccccc1
inactive: [14] 96 % of control | [9] 111 % of control | [10] 101 % of control | [6] 95 % of control | [7] 91 % of control

NC(=O)c1c[nH]n(C2OC(CO)C(O)C2O)c1=O (stereo unspecified)
inactive: dose: 12.5 mg/kg/injection, schedule: Q04DX004 (ip), vehicle: saline 99 % of control | [11] 98 % of control | [12] 105 % of control | [13] 98 % of control | dose: 200.0 mg/kg/injection, schedule: Q04DX004 (ip), vehicle: saline 101 % of control

CNC(=O)c1ccccc1CNC(=S)Nc1cccc(C)c1
inactive: dose: 37.5 mg/kg/injection, schedule: Q04DX004 (ip), vehicle: Klucel (hydroxypropylcellulose) (HPC) 92 % of control | dose: 75.0 mg/kg/injection, schedule: Q04DX004 (ip), vehicle: Klucel (hydroxypropylcellulose) (HPC) 102 % of control | dose: 150.0 mg/kg/injection, schedule: Q04DX004 (ip), vehicle: Klucel (hydroxypropylcellulose) (HPC) 99 % of control | dose: 300.0 mg/kg/injection, schedule: Q04DX004 (ip), vehicle: Klucel (hydroxypropylcellulose) (HPC) 102 % of control

— PubChem BioAssay AID292 (DTP/NCI, 2004)
